Laboratory results: paper PMC5361079 (Scientific Reports, 2017)
Where two headings read alike, the source gives them in different places.

How the values were obtained:
[1] = tested on: anesthetized, male Dunkin-Hartley guinea pigs; details: cumulative IV infusion dose 2.5 mg/kg amiodarone alone; cited from earlier work
hiPSC-CM syncytia = assay: Spontaneous FP rate and IMP amplitude/beating rate in hiPSC-CM syncytia (RTCA CardioECR / RTCA Cardio); assay type: cell-based, human
Procedure: hiPSC-CMs (iCells®) from Cellular Dynamics International (CDI, Madison, WI, USA) were seeded onto 48-well CardioECR or 96-well Cardio E-Plates® (ACEA Biosciences Inc., San Diego, CA, USA) coated with 10 μg/mL fibronectin (Sigma Aldrich, Catalog# F1141) at 30,000 cells/well, following manufacturer’s recommendations. Cells were maintained in culture (37 °C, 5% CO2) for a period of 14 days with iCell Maintenance® media (CDI, Madison, WI, USA) exchanged every 2–3 days. Compound addition was only performed on or after Day 14 following cell seeding.
Compound stock solutions were prepared in 100% DMSO or H2O. On the day of compound addition, the media was exchanged with fresh iCell Maintenance® media and allowed to equilibrate for at least 3 h in the incubator. The plates were read on an xCELLigence® RTCA CardioECR or RTCA Cardio (ACEA Biosciences Inc., San Diego, CA, USA). Control pre-reads to establish a baseline were recorded for at least 45 minutes (4 reads at 15-min intervals) prior to compound addition. The compound stock solutions were diluted into iCell Maintenance® media and quickly added to the plate. The plate was continuously monitored for at least 18 h following compound addition. IMP data were sampled at 12 ms (83 Hz), while FP rate data were collected at 0.1 ms (10 KHz). Attachment, growth and viability of syncytia were monitored by means of the baseline IMP signal, as previously described. IMP and FP signals were only interpreted if the baseline IMP was maintained throughout the measurement period (usually ≤18 hrs) at ≥70% of the value before test compound application (pre-read value).

hiPSC-CMs = assay: Intracellular prodrug, cleavage intermediate metabolite and NTP metabolite concentrations in hiPSC-CMs; assay type: in vitro ADME, human
Procedure: Approximately 18 h before dosing, iCell hiPSC-CMs were switched to iCell cardiomyocyte maintenance media free of Penicillin/Streptomycin. […] […] After the corresponding treatment, cells were washed 2x with 200 μL of ice-cold magnesium- and calcium-free PBS buffer. Cells were then lysed in 100 μL of ice-cold lysis solution (70/30 methanol/water containing 20 mM EDTA and 20 mM EGTA, pH 8) by pipetting up and down 5 times. Plates were sealed and transferred on dry ice for determination of prodrug, cleavage intermediate metabolite, and NTP metabolite concentrations. Intracellular prodrug concentrations were measured using a reversed phase HPLC- high resolution mass spectrometry method. A dimethylhexylamine based ion-pairing HPLC-MS/MS method was used to measure intracellular cleavage intermediate metabolite and NTP metabolite concentrations. Intracellular concentrations (pmol/million cells) of prodrug, cleavage intermediate metabolite, and NTP metabolite were quantitated against calibration standards of the same analytes prepared from control iCell hiPSC-CM lysates.
For prodrug analyses, full scan high resolution mass spectrometry data was collected using an Exactive™ Orbitrap mass spectrometer with an electrospray source operated in the positive ion mode. Prodrug chromatograms were extracted from full scan high resolution mass spectrometry data for the masses indicated in Supplementary Table 5. Absence of endogenous interference(s) was verified by extracting the same ion from full scan high resolution mass spectrometry chromatograms of unspiked control cell lysates. For the cleavage intermediate metabolite and NTP metabolite an electrospray MS/MS method run on a SCIEX API 4000 mass spectrometer with turboV ionspray source was used in negative ion mode monitoring the transitions indicated in Supplementary Table 5. Absence of endogenous interference(s) was verified by monitoring of the same MRM transitions for unspiked control cell lysates. Measured intracellular prodrug, cleavage intermediate metabolite, and NTP metabolite concentrations (in pmol/million cells units) were tabulated (Table 2).

[2] = Cardiac tissue concentrations in anesthetized guinea pigs; assay type: in vivo, guinea pig; details: end of IV infusions, prodrug alone or + amiodarone
[3] = anesthetized guinea pigs, cited from earlier work
[4] = 10 μM prodrug in the presence of 0.3 μM amiodarone
[5] = prodrug co-administered with 0.3 μM amiodarone, steady state (4 h), spontaneously beating hiPSC-CM syncytia
[6] = 30 Min, SOF-3 mM, SOF + A (0.3 µM amiodarone) + Ebel, LOQ=17

## CCCCc1oc2ccccc2c1C(=O)c1cc(I)c(OCCN(CC)CC)c(I)c1 [amiodarone]
[1]
  HR, % change from baseline: −7%

## CC(C)OC(=O)[C@H](C)NP(=O)(OC[C@H]1O[C@@H](n2ccc(=O)[nH]c2=O)[C@](C)(F)[C@@H]1O)Oc1ccccc1 (stereo partly drawn) [sofosbuvir, isopropyl (2S)-2-[[[(2R,3R,4R,5R)-5-(2,4-dioxopyrimidin-1-yl)-4-fluoro-3-hydroxy-4-methyl-tetrahydrofuran-2-yl]methoxy-phenoxy-phosphoryl]amino]propanoate, reference compound]
hiPSC-CM syncytia; [4]
  Change in IMP amplitude (RTCA Cardio): −97% ± 2%
  Change in beating rate (IMP-measured, RTCA Cardio): +146% ± 11%
hiPSC-CM syncytia; 11 μM sofosbuvir co-applied with 0.3 μM amiodarone
  IMP amplitude: below the limit of detection
hiPSC-CM syncytia; [5]
  Effect on FP rate: Concentration-dependent, steady-state effects
  Effect on IMP amplitude: Concentration-dependent, steady-state effects
hiPSC-CMs; 4 Hours, SOF-10 μM, SOF
  Intracellular Concentration, Sofosbuvir (Prodrug): 66.9 ± 6.8 pmol/million cells
hiPSC-CMs; 4 Hours, SOF-3 mM, SOF
  Intracellular Concentration, Sofosbuvir (Prodrug): 19.6 ± 5.8 pmol/million cells
hiPSC-CMs; 4 Hours, SOF-3 mM, SOF + A (0.3 µM amiodarone) + Ebel
  Intracellular Concentration, Sofosbuvir (Prodrug): 46.9 ± 8.9 pmol/million cells
hiPSC-CMs; 4 Hours, SOF-3 mM, SOF + A (0.3 µM amiodarone) + Ebel, LOQ=17
  Intracellular Concentration, NTP Metabolite: B LOQ
hiPSC-CMs; 4 Hours, SOF-3 mM, SOF, LOQ=17
  Intracellular Concentration, NTP Metabolite: B LOQ
hiPSC-CMs; 4 Hours, SOF-10 mM, SOF + A (0.3 µM amiodarone) + Ebel, LOQ=17
  Intracellular Concentration, NTP Metabolite: B LOQ
hiPSC-CMs; 30 Min, SOF-10 μM, SOF + A (0.3 µM amiodarone) + Ebel
  Intracellular Concentration, Sofosbuvir (Prodrug): 53.4 ± 9.5 pmol/million cells
hiPSC-CMs; 30 Min, SOF-10 μM, SOF + A (0.3 µM amiodarone) + Ebel, LOQ=17
  Intracellular Concentration, Cleavage Intermediate Metabolite: B LOQ
hiPSC-CMs; 30 Min, SOF-3 mM, SOF
  Intracellular Concentration, Sofosbuvir (Prodrug): 19.5 ± 0.9 pmol/million cells
hiPSC-CMs; [6]
  Intracellular Concentration, Cleavage Intermediate Metabolite: B LOQ
  Intracellular Concentration, NTP Metabolite: B LOQ
hiPSC-CMs; 30 Min, SOF-3 mM, SOF, LOQ=17
  Intracellular Concentration, NTP Metabolite: B LOQ
hiPSC-CMs; 30 Min, SOF-10 mM, SOF + A (0.3 µM amiodarone) + Ebel, LOQ=17
  Intracellular Concentration, NTP Metabolite: B LOQ
hiPSC-CMs; 30 Min, SOF-10 mM, SOF, LOQ=17
  Intracellular Concentration, NTP Metabolite: B LOQ
hiPSC-CMs; SOF-10 mM, 4 Hours, 2a (SAR164653) 50 mM, LOQ=17
  Intracellular Concentration, NTP Metabolite: B LOQ
hiPSC-CMs; SOF-10 mM, 4 Hours, 2a (SAR164653) 100 mM, LOQ=17
  Intracellular Concentration, NTP Metabolite: B LOQ
hiPSC-CMs; SOF-10 mM, 30 Min, 2a (SAR164653) 0 mM, LOQ=17
  Intracellular Concentration, NTP Metabolite: B LOQ
hiPSC-CMs; SOF-10 mM, 30 Min, 2a (SAR164653) 1 mM, LOQ=17
  Intracellular Concentration, NTP Metabolite: B LOQ
hiPSC-CMs; SOF-10 mM, 30 Min, 2a (SAR164653) 10 mM, LOQ=17
  Intracellular Concentration, NTP Metabolite: B LOQ
hiPSC-CMs; SOF-10 mM, 30 Min, 2a (SAR164653) 50 mM, LOQ=17
  Intracellular Concentration, NTP Metabolite: B LOQ
hiPSC-CMs; SOF-10 mM, 30 Min, 2a (SAR164653) 100 mM, LOQ=17
  Intracellular Concentration, NTP Metabolite: B LOQ
hiPSC-CMs; hiPSC-CMs, 10 μM prodrug + 0.3 μM amiodarone, 4 Hours
  Intracellular Concentration, Prodrug: 58.4 ± 6.0 pmol/million cells
hiPSC-CMs; hiPSC-CMs, 10 μM prodrug + 0.3 μM amiodarone, 30 Min
  Intracellular Concentration, Prodrug: 45.6 ± 2.0 pmol/million cells
hiPSC-CMs; hiPSC-CMs, 10 μM prodrug + 0.3 μM amiodarone, 30 Min, BLOQ = below 17 pmol/million cells
  Intracellular Concentration, NTP Metabolite: BLOQ
hiPSC-CMs; hiPSC-CMs, 10 μM prodrug alone, 4 Hours
  Intracellular Concentration, Prodrug: 50.1 ± 2.1 pmol/million cells
hiPSC-CMs; hiPSC-CMs, 10 μM prodrug alone, 30 Min
  Intracellular Concentration, Prodrug: 46.7 ± 3.7 pmol/million cells
hiPSC-CMs; hiPSC-CMs, 10 μM prodrug alone, 30 Min, BLOQ = below 17 pmol/million cells
  Intracellular Concentration, NTP Metabolite: BLOQ*
[2]
  Cleavage intermediate metabolite and NTP metabolite in cardiac tissue: present
[3]; cumulative IV sofosbuvir + amiodarone
  Cardiac sofosbuvir concentration: ~ 6 nmol/g tissue
[3]; cumulative IV sofosbuvir alone
  Cardiac sofosbuvir concentration: ~ 8 nmol/g tissue
